Test results taken from PMC9837035 (Nature Communications, 2023).
Where “and” joins values, the source holds several entries; their conditions need not be identical. Equal values may be shown once.

Tests used:
[1] = Hematological and hepatic parameters, 2-week repeated oral dosing; assay type: in vivo; conditions: rats, two weeks
[2] = tested on: Salmonella typhimurium TA100; assay: Ames test, TA100
Experimental: The Salmonella mutagenicity assay was performed by pre-incubating the test compounds for 20 min with Salmonella typhimurium strains TA98 and TA100, with and without metabolic activation (S9 mixture).
After this time 2 mL of top agar was added to the mixture and poured on to a plate containing minimum agar. The plates were incubated at 37 °C for 49 h and the His ± revertant colonies were counted manually and automatically by a colony counter (Colony analyzer CA-11D systems, System science Co.,Ltd.). The influence of metabolic activation was tested by adding 500 μL of 10% S9 mixture. All experiments were performed in duplicate. […] DMSO served as the negative control (100 μL/plate). The mutagenic index (MI, the average number of revertants per plate divided by the average number of revertants per plate from the negative control) was also calculated for each dose. A sample was considered positive when the MI was equal to or greater than 2 for at least one of the tested doses.

In the case of `Cc1c(C(=O)NC(CCC2CC2)C(=O)Nc2ccc(C#N)cc2)[nH]c2c1C(=O)CC(C)(C)C2` (stereo not shown) [RK-701], the MONO ([1]; 10 mg/kg) was 0.9 ± 0.2 x 102 cells/μL, the NEUT ([1]; 10 mg/kg) was 6.4 ± 1.7 x 102 cells/μL and the PL ([1]; 10 mg/kg) was 121 ± 18 mg/dL. The RBC ([1]; 10 mg/kg) was 741 ± 19 x 104 cells/μL, the Retic ([1]; 10 mg/kg) was 190 ± 28.3 x 109 cells/L and the T-CHO ([1]; 10 mg/kg) was 68 ± 13 mg/dL. For the same compound, the TG ([1]; 10 mg/kg) was 24 ± 15 mg/dL, the TP ([1]; 10 mg/kg) was 6.0 ± 0.3 g/dL and the WBC ([1]; 10 mg/kg) was 59.8 ± 12.2 x 102 cells/μL. The ALB ([1]; 30 mg/kg) was 3.5 ± 0.2 g/dL, the ALP ([1]; 30 mg/kg) was 511 ± 141 IU/L and the ALT ([1]; 30 mg/kg) was 26 ± 3 IU/L. The AST ([1]; 30 mg/kg) was 64 ± 7 IU/L, the EOS ([1]; 30 mg/kg) was 0.5 ± 0.1 x 102 cells/μL and the HCT ([1]; 30 mg/kg) was 42.6 ± 1.4%. The HGB ([1]; 30 mg/kg) was 14.5 ± 0.5 g/dL, the LUC ([1]; 30 mg/kg) was 0.4 ± 0.1 x 102 cells/μL and the Lymph ([1]; 30 mg/kg) was 53.0 ± 10.3 x 102 cells/μL. For the same compound, the MCH ([1]; 30 mg/kg) was 20.0 ± 1.0 pg, the MCHC ([1]; 30 mg/kg) was 34.0 ± 0.5 g/dL and the MCV ([1]; 30 mg/kg) was 58.7 ± 2.6 fL. For the same compound, the MONO ([1]; 30 mg/kg) was 0.9 ± 0.1 x 102 cells/μL, the NEUT ([1]; 30 mg/kg) was 6.7 ± 2.1 x 102 cells/μL and the PLT ([1]; 30 mg/kg) was 122 ±15.7 x 104 cells/μL. The RBC ([1]; 30 mg/kg) was 726 ± 36 x 104 cells/μL, the Retic ([1]; 30 mg/kg) was 228 ± 37.5 x 109 cells/L and the T-CHO ([1]; 30 mg/kg) was 64 ± 5 mg/dL. For the same compound, the TG ([1]; 30 mg/kg) was 17 ± 6 mg/dL, the TP ([1]; 30 mg/kg) was 5.9 ± 0.2 g/dL and the WBC ([1]; 30 mg/kg) was 61.6 ± 9.2 x 102 cells/μL. It also gave an ALB ([1]; 100 mg/kg) of 3.4 ± 0.1 g/dL, an ALP ([1]; 100 mg/kg) of 566 ± 181 IU/L and an ALT ([1]; 100 mg/kg) of 29 ± 5 IU/L. The AST ([1]; 100 mg/kg) was 64 ± 5 IU/L, the EOS ([1]; 100 mg/kg) was 0.6 ± 0.2 x 102 cells/μL and the HCT ([1]; 100 mg/kg) was 42.9 ± 1.1%. For the same compound, the HGB ([1]; 100 mg/kg) was 14.8 ± 0.3 g/dL, the LUC ([1]; 100 mg/kg) was 0.5 ± 0.2 x 102 cells/μL and the Lymph ([1]; 100 mg/kg) was 64.6 ± 14.9 x 102 cells/μL. It also gave an MCH ([1]; 100 mg/kg) of 20.3 ± 0.2 pg, an MCHC ([1]; 100 mg/kg) of 34.4 ± 0.3 g/dL and an MCV ([1]; 100 mg/kg) of 59.0 ± 0.7 fL. The MONO ([1]; 100 mg/kg) was 1.2 ± 0.4 x 102 cells/μL, the NEUT ([1]; 100 mg/kg) was 7.8 ± 2.9 x 102 cells/μL and the PL ([1]; 100 mg/kg) was 137 ± 26 mg/dL. For the same compound, the Retic ([1]; 100 mg/kg) was 179 ± 45.9 x 109 cells/L, the T-CHO ([1]; 100 mg/kg) was 88 ± 20 mg/dL and the TG ([1]; 100 mg/kg) was 19 ± 10 mg/dL. The TP ([1]; 100 mg/kg) was 5.8 ± 0.2 g/dL, the WBC ([1]; 100 mg/kg) was 74.8 ± 16.8 x 102 cells/μL and the Number of reverants/plate ([2]; TA100, + S9, base pair substitution mutation, 4.88 μg/plate) was 107 and 119. The Number of reverants/plate ([2]; TA100, + S9, base pair substitution mutation, 19.5 μg/plate) was 117 and 120, the Number of reverants/plate ([2]; TA100, + S9, base pair substitution mutation, 78.1 μg/plate) was 117 and 128 and the Number of reverants/plate ([2]; TA100, + S9, base pair substitution mutation, 313 μg/plate) was 97 and 127. The Number of reverants/plate ([2]; TA100, + S9, base pair substitution mutation, 1250* μg/plate) was 98 and 121, the Number of reverants/plate ([2]; TA100, + S9, base pair substitution mutation, 2500* μg/plate) was 117 and 90 and the Number of reverants/plate ([2]; TA100, + S9, base pair substitution mutation, 5000* μg/plate) was 111 and 110. It also gave a Number of revertants/plate ([2]; TA100, +S9, 4.88 μg/plate) of 113, a Number of revertants/plate ([2]; TA100, +S9, 19.5 μg/plate) of 119 and a Number of revertants/plate ([2]; TA100, +S9, 78.1 μg/plate) of 123. The Number of revertants/plate ([2]; TA100, +S9, 313 μg/plate) was 112, the Number of revertants/plate ([2]; TA100, +S9, 1250 μg/plate, insoluble material) was 110 and the Number of revertants/plate ([2]; TA100, +S9, 2500 μg/plate, insoluble material) was 104. For the same compound, the Number of revertants/plate ([2]; TA100, +S9, 5000 μg/plate, insoluble material) was 111, the Number of reverants/plate ([2]; TA100, - S9, base pair substitution mutation, 4.88 μg/plate) was 110 and 135 and the Number of reverants/plate ([2]; TA100, - S9, base pair substitution mutation, 19.5 μg/plate) was 102 and 108. The Number of reverants/plate ([2]; TA100, - S9, base pair substitution mutation, 78.1 μg/plate) was 90 and 106, the Number of reverants/plate ([2]; TA100, - S9, base pair substitution mutation, 313 μg/plate) was 125 and 110 and the Number of reverants/plate ([2]; TA100, - S9, base pair substitution mutation, 1250* μg/plate) was 99 and 94. The Number of reverants/plate ([2]; TA100, - S9, base pair substitution mutation, 2500* μg/plate) was 98 and 108, the Number of reverants/plate ([2]; TA100, - S9, base pair substitution mutation, 5000* μg/plate) was 93 and 98 and the Number of revertants/plate ([2]; TA100, -S9, 4.88 μg/plate) was 123. It also gave a Number of revertants/plate ([2]; TA100, -S9, 19.5 μg/plate) of 105, a Number of revertants/plate ([2]; TA100, -S9, 78.1 μg/plate) of 98 and a Number of revertants/plate ([2]; TA100, -S9, 313 μg/plate) of 118. The Number of revertants/plate ([2]; TA100, -S9, 1250 μg/plate, insoluble material) was 97, the Number of revertants/plate ([2]; TA100, -S9, 2500 μg/plate, insoluble material) was 103 and the Number of revertants/plate ([2]; TA100, -S9, 5000 μg/plate, insoluble material) was 96. The mutagenicity ([2]; TA100, regardless of metabolic activation) was “no mutagenicity”.
